Measured values from the kinase profiling compilation of Christmann-Franck et al. (2016).

How the values were obtained:
Test in all cases: radiometric filter-binding kinase assay
NTRK1 (human) = NTRK1 (human) (UniProt P04629)
MAP3K5 (human) = MAP3K5 (human) (UniProt Q99683)
MAP3K7 TAB1 (human) = MAP3K7 TAB1 (human) (UniProt Q15750+O43318)
MAP3K1 (human) = MAP3K1 (human) (UniProt Q13233)
MAPKAPK2 (human) = MAPKAPK2 (human) (UniProt P49137)
AURKA (human) = AURKA (human) (UniProt O14965); conditions: compound 1.0 µM
PAK4 (human) = PAK4 (human) (UniProt O96013)
MST4 (human) = MST4 (human) (UniProt Q9P289)
EPHB3 (human) = EPHB3 (human) (UniProt P54753)
MARK1 (human) = MARK1 (human) (UniProt Q9P0L2)
PRKCZ (human) = PRKCZ (human) (UniProt Q05513)
NUAK1 (human) = NUAK1 (human) (UniProt O60285)
MARK2 (human) = MARK2 (human) (UniProt Q7KZI7)
PIM1 (human) = PIM1 (human) (UniProt P11309)
MAP3K11 (human) = MAP3K11 (human) (UniProt Q16584)
DYRK2 (human) = DYRK2 (human) (UniProt Q92630)
EPHA2 (human) = EPHA2 (human) (UniProt P29317)
PAK6 (human) = PAK6 (human) (UniProt Q9NQU5)
EEF2K (human) = EEF2K (human) (UniProt O00418); conditions: compound 1.0 µM
IRAK4 (human) = IRAK4 (human) (UniProt Q9NWZ3)
MAP2K2 (human) = MAP2K2 (human) (UniProt P36507)
MAP3K9 (human) = MAP3K9 (human) (UniProt P80192)
[1] = test system: AKT1 (human), P31749 [S473D]
PRKCA (human) = PRKCA (human) (UniProt P17252)
BRSK1 (human) = BRSK1 (human) (UniProt Q8TDC3)
MARK4 (human) = MARK4 (human) (UniProt Q96L34)
HIPK3 (human) = HIPK3 (human) (UniProt Q9H422)
INSR (human) = INSR (human) (UniProt P06213)
MAPK12 (human) = MAPK12 (human) (UniProt P53778)
MELK (human) = MELK (human) (UniProt Q14680)
MAPK9 (human) = MAPK9 (human) (UniProt P45984)
ERBB4 (human) = ERBB4 (human) (UniProt Q15303)
PKN2 (human) = PKN2 (human) (UniProt Q16513)
MAP2K6 (human) = MAP2K6 (human) (UniProt P52564)
[2] = biological target: STK11 CAB39 STRADA (human) (UniProt Q9Y376+Q7RTN6+Q15831)
GSK3B (human) = GSK3B (human) (UniProt P49841)
Sequence of GSK3B (human) (P49841 whole entry, looked up): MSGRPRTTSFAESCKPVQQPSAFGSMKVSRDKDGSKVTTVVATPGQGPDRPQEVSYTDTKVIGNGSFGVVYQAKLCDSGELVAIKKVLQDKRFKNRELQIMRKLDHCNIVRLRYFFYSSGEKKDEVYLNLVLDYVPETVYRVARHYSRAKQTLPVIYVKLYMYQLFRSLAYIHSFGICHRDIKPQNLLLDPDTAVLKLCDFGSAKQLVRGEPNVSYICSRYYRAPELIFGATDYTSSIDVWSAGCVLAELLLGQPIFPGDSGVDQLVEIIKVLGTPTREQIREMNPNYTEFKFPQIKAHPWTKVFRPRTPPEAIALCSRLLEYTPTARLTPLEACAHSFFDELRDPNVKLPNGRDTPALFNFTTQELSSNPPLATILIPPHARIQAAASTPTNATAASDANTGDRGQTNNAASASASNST

Sequence of MARK4 (human) (Q96L34 whole entry, looked up): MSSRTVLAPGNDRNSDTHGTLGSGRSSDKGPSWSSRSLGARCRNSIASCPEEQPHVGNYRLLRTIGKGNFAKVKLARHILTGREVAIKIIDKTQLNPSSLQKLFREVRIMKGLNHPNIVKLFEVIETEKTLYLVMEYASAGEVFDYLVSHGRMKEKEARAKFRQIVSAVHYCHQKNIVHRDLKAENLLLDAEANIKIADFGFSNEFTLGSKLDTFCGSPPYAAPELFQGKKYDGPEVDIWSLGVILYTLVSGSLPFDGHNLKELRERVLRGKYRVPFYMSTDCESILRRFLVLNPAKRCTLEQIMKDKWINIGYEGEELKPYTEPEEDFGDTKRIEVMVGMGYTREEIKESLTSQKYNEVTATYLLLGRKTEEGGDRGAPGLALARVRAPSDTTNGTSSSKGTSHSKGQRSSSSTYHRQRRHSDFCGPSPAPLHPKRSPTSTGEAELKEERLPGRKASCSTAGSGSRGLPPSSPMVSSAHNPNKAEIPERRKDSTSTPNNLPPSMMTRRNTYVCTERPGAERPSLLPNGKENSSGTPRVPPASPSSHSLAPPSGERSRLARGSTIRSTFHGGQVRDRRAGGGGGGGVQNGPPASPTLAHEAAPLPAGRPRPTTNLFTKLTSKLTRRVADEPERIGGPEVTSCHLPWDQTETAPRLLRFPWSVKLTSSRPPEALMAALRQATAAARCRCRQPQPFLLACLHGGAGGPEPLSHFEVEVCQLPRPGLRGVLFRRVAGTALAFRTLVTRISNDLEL
Sequence of EPHA2 (human) (P29317 whole entry, looked up): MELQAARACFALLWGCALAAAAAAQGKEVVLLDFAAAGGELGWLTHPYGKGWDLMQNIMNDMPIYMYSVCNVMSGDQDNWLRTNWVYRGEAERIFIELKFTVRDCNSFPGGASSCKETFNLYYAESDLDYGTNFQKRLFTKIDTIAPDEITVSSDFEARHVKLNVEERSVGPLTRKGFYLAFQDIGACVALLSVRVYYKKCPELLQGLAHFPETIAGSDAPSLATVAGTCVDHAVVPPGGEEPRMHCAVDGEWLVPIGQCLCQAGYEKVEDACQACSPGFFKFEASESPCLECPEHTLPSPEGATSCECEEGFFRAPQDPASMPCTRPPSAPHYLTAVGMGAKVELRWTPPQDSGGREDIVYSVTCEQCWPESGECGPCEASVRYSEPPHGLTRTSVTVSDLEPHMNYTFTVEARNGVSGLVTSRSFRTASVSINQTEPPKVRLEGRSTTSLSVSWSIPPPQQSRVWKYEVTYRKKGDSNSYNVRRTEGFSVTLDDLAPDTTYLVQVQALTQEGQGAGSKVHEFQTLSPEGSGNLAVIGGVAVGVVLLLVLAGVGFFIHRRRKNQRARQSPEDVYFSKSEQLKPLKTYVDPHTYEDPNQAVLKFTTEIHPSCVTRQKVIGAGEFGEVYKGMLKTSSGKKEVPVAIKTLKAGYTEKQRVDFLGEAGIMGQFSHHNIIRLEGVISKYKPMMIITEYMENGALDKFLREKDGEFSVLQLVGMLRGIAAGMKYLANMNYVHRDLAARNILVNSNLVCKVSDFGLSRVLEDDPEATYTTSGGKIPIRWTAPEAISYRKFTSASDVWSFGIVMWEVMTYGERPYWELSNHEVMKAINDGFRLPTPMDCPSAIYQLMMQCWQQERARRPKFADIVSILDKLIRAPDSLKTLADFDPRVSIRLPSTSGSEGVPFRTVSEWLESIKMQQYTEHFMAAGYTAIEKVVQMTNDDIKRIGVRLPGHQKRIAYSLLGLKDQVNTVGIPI
Sequence of MAPK9 (human) (P45984 whole entry, looked up): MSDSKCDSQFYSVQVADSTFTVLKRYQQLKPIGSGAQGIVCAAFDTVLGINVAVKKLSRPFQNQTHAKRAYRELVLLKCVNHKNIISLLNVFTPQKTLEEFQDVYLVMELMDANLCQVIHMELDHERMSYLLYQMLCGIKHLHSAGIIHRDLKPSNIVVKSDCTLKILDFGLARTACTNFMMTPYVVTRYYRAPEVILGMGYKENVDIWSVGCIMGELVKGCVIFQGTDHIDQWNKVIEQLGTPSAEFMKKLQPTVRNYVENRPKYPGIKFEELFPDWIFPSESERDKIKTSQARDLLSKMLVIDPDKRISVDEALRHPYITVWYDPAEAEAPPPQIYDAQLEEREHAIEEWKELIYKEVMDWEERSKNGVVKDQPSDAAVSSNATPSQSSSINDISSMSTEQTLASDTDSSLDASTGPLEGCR
Sequence of BRSK1 (human) (Q8TDC3 whole entry, looked up): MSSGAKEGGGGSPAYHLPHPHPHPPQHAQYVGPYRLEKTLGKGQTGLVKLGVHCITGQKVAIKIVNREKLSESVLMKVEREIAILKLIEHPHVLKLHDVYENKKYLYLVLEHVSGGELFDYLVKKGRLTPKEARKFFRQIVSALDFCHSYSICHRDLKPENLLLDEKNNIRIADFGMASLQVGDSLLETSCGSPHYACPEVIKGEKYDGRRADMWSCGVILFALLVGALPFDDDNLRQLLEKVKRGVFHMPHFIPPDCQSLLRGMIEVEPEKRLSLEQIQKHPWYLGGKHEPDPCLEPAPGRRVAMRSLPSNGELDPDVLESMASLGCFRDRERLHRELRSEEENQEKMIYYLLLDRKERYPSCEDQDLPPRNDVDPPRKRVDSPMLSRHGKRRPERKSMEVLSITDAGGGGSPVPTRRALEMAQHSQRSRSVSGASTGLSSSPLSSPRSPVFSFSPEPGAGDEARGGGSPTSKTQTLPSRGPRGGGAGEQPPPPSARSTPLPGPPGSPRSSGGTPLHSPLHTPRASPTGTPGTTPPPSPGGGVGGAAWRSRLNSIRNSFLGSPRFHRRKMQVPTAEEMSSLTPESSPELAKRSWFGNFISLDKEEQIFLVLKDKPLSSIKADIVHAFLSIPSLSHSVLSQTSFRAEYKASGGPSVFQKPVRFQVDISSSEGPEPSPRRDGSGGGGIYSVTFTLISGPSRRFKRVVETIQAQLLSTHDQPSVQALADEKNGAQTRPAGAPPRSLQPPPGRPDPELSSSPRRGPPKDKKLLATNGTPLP
Sequence of IRAK4 (human) (Q9NWZ3 whole entry, looked up): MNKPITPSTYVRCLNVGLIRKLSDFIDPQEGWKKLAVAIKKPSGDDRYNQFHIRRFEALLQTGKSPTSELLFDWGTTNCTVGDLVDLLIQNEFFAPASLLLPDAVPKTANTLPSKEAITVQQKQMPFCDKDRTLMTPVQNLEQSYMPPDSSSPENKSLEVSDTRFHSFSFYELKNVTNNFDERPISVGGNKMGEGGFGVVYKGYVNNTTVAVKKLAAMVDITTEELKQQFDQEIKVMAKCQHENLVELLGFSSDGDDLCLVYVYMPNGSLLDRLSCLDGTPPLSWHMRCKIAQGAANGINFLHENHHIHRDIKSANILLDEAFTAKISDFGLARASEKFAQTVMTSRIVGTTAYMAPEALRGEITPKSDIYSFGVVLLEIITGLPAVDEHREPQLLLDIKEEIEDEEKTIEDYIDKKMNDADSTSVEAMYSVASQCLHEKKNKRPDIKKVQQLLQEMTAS
Sequence of PIM1 (human) (P11309 whole entry, looked up): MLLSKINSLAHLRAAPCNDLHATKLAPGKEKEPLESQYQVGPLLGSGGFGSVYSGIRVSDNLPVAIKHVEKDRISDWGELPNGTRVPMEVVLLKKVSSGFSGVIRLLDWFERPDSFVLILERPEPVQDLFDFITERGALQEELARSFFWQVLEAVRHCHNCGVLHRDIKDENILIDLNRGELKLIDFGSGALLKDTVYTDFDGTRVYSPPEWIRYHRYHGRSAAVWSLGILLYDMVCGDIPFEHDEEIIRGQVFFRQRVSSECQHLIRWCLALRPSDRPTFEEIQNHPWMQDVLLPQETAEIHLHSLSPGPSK
Sequence of MST4 (human) (Q9P289 whole entry, looked up): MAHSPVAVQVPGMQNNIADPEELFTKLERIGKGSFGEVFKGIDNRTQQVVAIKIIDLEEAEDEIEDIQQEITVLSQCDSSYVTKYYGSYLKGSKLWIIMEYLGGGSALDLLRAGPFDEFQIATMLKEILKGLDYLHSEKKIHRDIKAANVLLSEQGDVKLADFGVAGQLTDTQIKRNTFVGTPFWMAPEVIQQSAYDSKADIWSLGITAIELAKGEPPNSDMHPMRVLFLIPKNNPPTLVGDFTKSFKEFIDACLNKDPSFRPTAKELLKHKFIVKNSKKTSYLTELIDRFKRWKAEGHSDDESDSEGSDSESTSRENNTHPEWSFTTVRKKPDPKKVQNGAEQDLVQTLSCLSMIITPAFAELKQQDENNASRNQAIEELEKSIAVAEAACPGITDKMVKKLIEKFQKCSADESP
Sequence of AKT1 (human), P31749 [S473D] (P31749 whole entry S473D, looked up): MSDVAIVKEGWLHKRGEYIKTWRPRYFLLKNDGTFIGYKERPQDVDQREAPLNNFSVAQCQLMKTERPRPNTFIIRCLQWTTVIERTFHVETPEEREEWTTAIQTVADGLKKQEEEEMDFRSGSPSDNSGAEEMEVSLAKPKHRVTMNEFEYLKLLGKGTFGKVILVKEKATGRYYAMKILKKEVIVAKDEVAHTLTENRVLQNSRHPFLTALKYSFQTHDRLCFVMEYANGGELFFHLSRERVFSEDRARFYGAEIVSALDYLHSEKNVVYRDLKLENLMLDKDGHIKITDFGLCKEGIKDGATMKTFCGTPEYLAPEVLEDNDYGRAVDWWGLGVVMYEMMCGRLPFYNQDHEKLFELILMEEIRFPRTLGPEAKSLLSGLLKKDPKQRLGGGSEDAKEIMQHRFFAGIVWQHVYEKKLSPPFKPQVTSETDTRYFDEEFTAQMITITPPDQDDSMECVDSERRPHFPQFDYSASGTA

## COc1cc(O)c2c(c1)/C=C/C[C@H](O)[C@H](O)C(=O)/C=C\C[C@H](C)OC2=O
NTRK1 (human); compound 0.1 µM
  residual activity: 46%
NTRK1 (human); compound 1.0 µM
  residual activity: 24%
MAP3K5 (human); compound 0.1 µM
  residual activity: 91%
MAP3K5 (human); compound 1.0 µM
  residual activity: 95%
MAP3K7 TAB1 (human); compound 0.1 µM
  residual activity: 5%
MAP3K7 TAB1 (human); compound 1.0 µM
  residual activity: 3%
MAP3K1 (human); compound 0.1 µM
  residual activity: 107%
MAP3K1 (human); compound 1.0 µM
  residual activity: 92%
MAPKAPK2 (human); compound 0.1 µM
  residual activity: 124%
MAPKAPK2 (human); compound 1.0 µM
  residual activity: 79%
AURKA (human)
  residual activity: 105%
PAK4 (human); compound 0.1 µM
  residual activity: 94%
PAK4 (human); compound 1.0 µM
  residual activity: 81%
MST4 (human); compound 0.1 µM
  residual activity: 129%
MST4 (human); compound 1.0 µM
  residual activity: 72%
EPHB3 (human); compound 0.1 µM
  residual activity: 111%
EPHB3 (human); compound 1.0 µM
  residual activity: 100%
MARK1 (human); compound 0.1 µM
  residual activity: 112%
MARK1 (human); compound 1.0 µM
  residual activity: 99%
PRKCZ (human); compound 0.1 µM
  residual activity: 105%
PRKCZ (human); compound 1.0 µM
  residual activity: 99%
NUAK1 (human); compound 0.1 µM
  residual activity: 113%
NUAK1 (human); compound 1.0 µM
  residual activity: 78%
MARK2 (human); compound 0.1 µM
  residual activity: 109%
MARK2 (human); compound 1.0 µM
  residual activity: 114%
PIM1 (human); compound 0.1 µM
  residual activity: 102%
PIM1 (human); compound 1.0 µM
  residual activity: 72%
MAP3K11 (human); compound 0.1 µM
  residual activity: 114%
MAP3K11 (human); compound 1.0 µM
  residual activity: 79%
DYRK2 (human); compound 0.1 µM
  residual activity: 114%
DYRK2 (human); compound 1.0 µM
  residual activity: 89%
EPHA2 (human); compound 0.1 µM
  residual activity: 99%
EPHA2 (human); compound 1.0 µM
  residual activity: 55%
PAK6 (human); compound 0.1 µM
  residual activity: 100%
PAK6 (human); compound 1.0 µM
  residual activity: 87%
EEF2K (human)
  residual activity: 85%
IRAK4 (human); compound 0.1 µM
  residual activity: 99%
IRAK4 (human); compound 1.0 µM
  residual activity: 28%
MAP2K2 (human); compound 0.1 µM
  residual activity: 12%
MAP2K2 (human); compound 1.0 µM
  residual activity: 3%
MAP3K9 (human); compound 0.1 µM
  residual activity: 109%
MAP3K9 (human); compound 1.0 µM
  residual activity: 75%
[1]; compound 0.1 µM
  residual activity: 111%
[1]; compound 1.0 µM
  residual activity: 91%
PRKCA (human); compound 0.1 µM
  residual activity: 107%
PRKCA (human); compound 1.0 µM
  residual activity: 85%
BRSK1 (human); compound 0.1 µM
  residual activity: 113%
BRSK1 (human); compound 1.0 µM
  residual activity: 90%
MARK4 (human); compound 0.1 µM
  residual activity: 107%
MARK4 (human); compound 1.0 µM
  residual activity: 86%
HIPK3 (human); compound 0.1 µM
  residual activity: 90%
HIPK3 (human); compound 1.0 µM
  residual activity: 103%
INSR (human); compound 0.1 µM
  residual activity: 110%
INSR (human); compound 1.0 µM
  residual activity: 94%
MAPK12 (human); compound 0.1 µM
  residual activity: 99%
MAPK12 (human); compound 1.0 µM
  residual activity: 92%
MELK (human); compound 0.1 µM
  residual activity: 95%
MELK (human); compound 1.0 µM
  residual activity: 94%
MAPK9 (human); compound 0.1 µM
  residual activity: 109%
MAPK9 (human); compound 1.0 µM
  residual activity: 81%
ERBB4 (human); compound 0.1 µM
  residual activity: 100%
ERBB4 (human); compound 1.0 µM
  residual activity: 95%
PKN2 (human); compound 0.1 µM
  residual activity: 102%
PKN2 (human); compound 1.0 µM
  residual activity: 91%
MAP2K6 (human); compound 0.1 µM
  residual activity: 12%
MAP2K6 (human); compound 1.0 µM
  residual activity: 10%
[2]; compound 0.1 µM
  residual activity: 138%
[2]; compound 1.0 µM
  residual activity: 65%
GSK3B (human); compound 0.1 µM
  residual activity: 102%
GSK3B (human); compound 1.0 µM
  residual activity: 74%
